This note sets out measurements from patent US9580430B2, “9H-pyrimido[4,5-B]indoles and related analogs as BET bromodomain inhibitors” (THE REGENTS OF THE UNIVERSITY OF MICHIGAN, priority 2014, dated 2017).

The test system of one assay is MDA-MB-436. Briefly: Cell growth inhibition, MDA-MB-436 breast cancer cells (WST-8). The assay is classed as cell-based. The note with it: Homo sapiens, MDA-MB-436, 96 h; 4 days; read-out: IC50 (nM) MDA-MB-436 Cell Line (WST assay). The method, then:
All the breast cancer cell lines were obtained from the ATCC. Cell viability was determined using the WST-8 (2-(2-methoxy-4-nitrophenyl)-3-(4-nitrophenyl)-5-(2,4-disulfophenyl)-2H-tetrazolium, monosodium salt) based Cell Counting-8 Kit (Dojindo Molecular Technologies, Inc., Rockville, Md.) according to the manufacture's instruction. […] The absorbance was measured at 450 nm using a SPECTRAmax PLUS plate reader (Molecular Devices, Sunnyvale, Calif.). The IC50 was calculated using the GraphPad Prism 5 software.
(Tetrazolium assays rely on reduction of a dye to a coloured formazan, in cell work by metabolically active cells.)

Another assay concerns MOLM-13. Briefly: Cell growth inhibition, MOLM-13 leukemia cells (CellTiter-Glo). In kind it is cell-based. The note with it: Homo sapiens, MOLM-13, 96 h; 4 days; read-out: IC50 (nM) MOLM-13 Cell Line (CellTiter-Glo assay). The method, then:
Cell growth inhibitory activity of representative Compounds of the Disclosure was determined using CellTiter-Glo® Luminescent Cell Viability Assay. […] Cell viability was determined using the CellTiter-Glo® Luminescent Cell Viability Assay Kit (Promega, Madison, Wis.) according to the manufacture's instruction. Briefly, a volume of CellTiter-Glo® Reagent equal to the volume of cell culture medium was added to each well, and then the plates were incubated at room temperature for 10-20 minutes. The luminescent signal was measured using a Tecan Infinite M1000 multimode microplate reader (Tecan, Morrisville, N.C.). The half maximal inhibitory concentration (IC50) was calculated using the GraphPad Prism 5 software (GraphPad Software, La Jolla, Calif.).

The next assay deals with T1, recombinant BRD4 BD2 (Homo sapiens, UniProt O60885).
T1 construct: for recombinant BRD4 BD1 and BRD4 BD2 proteins
As to the kind of experiment: Competitive fluorescence-polarization (FP) binding assay, BRD4 BD2. Further: probe 1.5 nM. The note with it: competitive FP assay; protein 6 nM, probe […]; read-out: IC50 (nM) BRD4 BD2. The method, then: (§1) Fluorescence Polarization (FP) competitive binding studies were carried out using a FAM labeled fluorescent probe (ZBA248 or BRD-1F) to determine binding affinities of representative Compounds of the Disclosure for recombinant BRD4 BD1 and BRD4 BD2 proteins. For example, equilibrium dissociation constants (Kd) values of ZBA248 to these […] proteins were determined from protein saturation experiments by monitoring the total fluorescence polarization of mixtures composed with the fluorescent probe at a fixed concentration and proteins with increasing concentrations up to full saturation. Serial dilutions of testing protein were mixed with ZBA248 to a final volume of 200 μl in the assay buffer. […] Plates were incubated at room temperature for 30 minutes with gentle shaking to assure equilibrium. […] Kd values of ZBA248 were calculated by fitting the sigmoidal dose-dependent FP increases as a function of protein concentrations using Graphpad Prism 6.0 software (Graphpad Software, San Diego, Calif.).
(§2) The IC50 and Ki values of representative Compounds of the Disclosure were determined in a competitive binding experiment as described above. Mixtures of 10 μl of the tested compounds in assay buffer with 40% Ethylene Glycol and 190 μl of preincubated protein/probe complex solution in the assay buffer (100 mM potassium phosphate, pH 6.5, 0.01% Triton X-100) were added into assay plates which were incubated at room temperature for 30 minutes with gentle shaking. Final concentrations of proteins were 10 and 6 nM in assays for BD1 and BD2 of BRD4, respectively. […] FP values were measured as described above. IC50 values were determined by nonlinear regression fitting of the competition curves.

In a further assay the target is T2, recombinant BRD4 BD1 (Homo sapiens, UniProt O60885).
T2 construct: for recombinant BRD4 BD1 and BRD4 BD2 proteins
Briefly: Competitive fluorescence-polarization (FP) binding assay, BRD4 BD1. Further: probe 1.5 nM. The note with it: competitive FP assay; protein 10 nM, probe […]; read-out: IC50 (nM) BRD4 BD1. The method, then: as §1, §2

Some results are limits rather than exact numbers.

With `COc1cc2c(cc1-c1c(C)noc1C)[nH]c1nc(C)nc(Nc3c(-c4ccccc4)nn(C(C)C)c3C)c12` [Cpd. No. 4, 7-(3,5-Dimethylisoxazol-4-yl)-N-(1-isopropyl-5-methyl-3-phenyl-1H-pyrazol-4-yl)-6-methoxy-2-methyl-9H-pyrimido[4,5-b]indol-4-amine], the IC50 in the assay on MDA-MB-436 is 249 nM; in the assay with MOLM-13, 69.3 nM; on recombinant BRD4 BD2, 21.7 nM; on recombinant BRD4 BD1, 52.9 nM.

With `COc1cc2c(cc1-c1c(C)noc1C)[nH]c1nc(C)nc(Nc3n[nH]c(C)c3-c3ccccc3)c12` [Cpd. No. 5, 7-(3,5-Dimethylisoxazol-4-yl)-6-methoxy-2-methyl-N-(5-methyl-4-phenyl-1H-pyrazol-3-yl)-9H-pyrimido[4,5-b]indol-4-amine], the IC50 in the assay on MDA-MB-436 stood at 719 nM; in the assay on MOLM-13, 475 nM; at recombinant BRD4 BD2 it was 381 nM; at recombinant BRD4 BD1, 340 nM.

In the case of `COc1cc2c(cc1-c1c(C)noc1C)[nH]c1nc(C)nc(Nc3cc(C)nn3-c3cccc(Cl)c3)c12` [Cpd. No. 7, N-(1-(3-Chlorophenyl)-3-methyl-1H-pyrazol-5-yl)-7-(3,5-dimethylisoxazol-4-yl)-6-methoxy-2-methyl-9H-pyrimido[4,5-b]indol-4-amine], the half-inhibitory concentration (IC50) in the assay with MDA-MB-436 worked out at 142 nM; in the assay with MOLM-13 it was 56.3 nM; at recombinant BRD4 BD2, 198 nM; at recombinant BRD4 BD1 it was 365 nM.

In the case of `COc1cc2c(cc1-c1c(C)noc1C)[nH]c1nc(C)nc(Nc3cc(C)nn3C)c12` [Cpd. No. 8, N-(1,3-Dimethyl-1H-pyrazol-5-yl)-7-(3,5-dimethylisoxazol-4-yl)-6-methoxy-2-methyl-9H-pyrimido[4,5-b]indol-4-amine], the concentration for half-maximal inhibition (IC50) with MDA-MB-436 turned out to be 55.1 nM; with MOLM-13 it was 10.3 nM; at recombinant BRD4 BD2, 8 nM; on recombinant BRD4 BD1, 9.7 nM.

For `COc1cc2c(cc1-c1c(C)noc1C)[nH]c1nc(C)nc(Nc3cc(C)nn3C(C)C)c12` [Cpd. No. 9, 7-(3,5-Dimethylisoxazol-4-yl)-N-(1-isopropyl-3-methyl-1H-pyrazol-5-yl)-6-methoxy-2-methyl-9H-pyrimido[4,5-b]indol-4-amine], the concentration for half-maximal inhibition (IC50) in the assay with MDA-MB-436 worked out at 29.6 nM; in the assay with MOLM-13 it was 5 nM; on recombinant BRD4 BD2, 6.3 nM; at recombinant BRD4 BD1, 6.1 nM.

In the case of `COc1cc2c(cc1-c1c(C)noc1C)[nH]c1nc(C)nc(Nc3nn(C)c4ncccc34)c12` [Cpd. No. 10, 7-(3,5-Dimethylisoxazol-4-yl)-6-methoxy-2-methyl-N-(1-methyl-1H-pyrazolo[3,4-b]pyridin-3-yl)-9H-pyrimido[4,5-b]indol-4-amine], the IC50 in the assay on MDA-MB-436 amounted to 138 nM; in the assay on MOLM-13 it was 45.6 nM; on recombinant BRD4 BD2, 43.3 nM; on recombinant BRD4 BD1, 21.5 nM.

Turning to `COc1cc2c(cc1-c1c(C)noc1C)[nH]c1nc(C)nc(Nc3nn(C)c4ccncc34)c12` [Cpd. No. 11, 7-(3,5-dimethylisoxazol-4-yl)-6-methoxy-2-methyl-N-(1-methyl-1H-pyrazolo[4,3-c]pyridin-3-yl)-9H-pyrimido[4,5-b]indol-4-amine], the IC50 stood at 398 nM with MDA-MB-436, 23.9 nM in the assay on MOLM-13, 235 nM at recombinant BRD4 BD2 and 240 nM on recombinant BRD4 BD1.

With `COc1cc2c(cc1-c1c(C)noc1C)[nH]c1nc(C)nc(Nc3nn(C)c4ccc(Cl)cc34)c12` [Cpd. No. 13, N-(5-Chloro-1-methyl-1H-indazol-3-yl)-7-(3,5-dimethylisoxazol-4-yl)-6-methoxy-2-methyl-9H-pyrimido[4,5-b]indol-4-amine], the IC50 with MDA-MB-436 is 1080 nM; in the assay with MOLM-13 it was 108 nM; at recombinant BRD4 BD2, over 1000 nM; on recombinant BRD4 BD1, over 1000 nM.

Regarding `COc1cc2c(cc1-c1c(C)noc1C)[nH]c1nc(C)nc(Nc3cnn4ccccc34)c12` [Cpd. No. 14, 7-(3,5-Dimethylisoxazol-4-yl)-6-methoxy-2-methyl-N-(pyrazolo[1,5-a]pyridin-3-yl)-9H-pyrimido[4,5-b]indol-4-amine], the IC50 with MDA-MB-436 was 83.3 nM; in the assay on MOLM-13, 23.7 nM; on recombinant BRD4 BD2 it was 22.6 nM; at recombinant BRD4 BD1 it was 14.6 nM.

Turning to `COc1cc2c(cc1-c1c(C)noc1C)[nH]c1nc(C)nc(Nc3c(C)nn4ccccc34)c12` [Cpd. No. 15, 7-(3,5-Dimethylisoxazol-4-yl)-6-methoxy-2-methyl-N-(2-methylpyrazolo[1,5-a]pyridin-3-yl)-9H-pyrimido[4,5-b]indol-4-amine], the IC50 is 33.7 nM in the assay with MDA-MB-436, 5.1 nM in the assay with MOLM-13, 18.8 nM at recombinant BRD4 BD2 and 10.1 nM at recombinant BRD4 BD1.

Regarding `COc1cc2c(cc1-c1c(C)noc1C)[nH]c1nc(C)nc(Nc3cnn4cccnc34)c12` [Cpd. No. 16, 7-(3,5-Dimethylisoxazol-4-yl)-6-methoxy-2-methyl-N-(pyrazolo[1,5-a]pyrimidin-3-yl)-9H-pyrimido[4,5-b]indol-4-amine], the IC50 in the assay on MDA-MB-436 amounted to 529 nM; in the assay on MOLM-13, 14.6 nM; at recombinant BRD4 BD2 it was 194 nM; at recombinant BRD4 BD1, 248 nM.

As to `COc1cc2c(cc1-c1c(C)noc1C)[nH]c1ncnc(Nc3nn(C)c4ccccc34)c12` [Cpd. No. 17, 7-(3,5-Dimethylisoxazol-4-yl)-6-methoxy-N-(1-methyl-1H-indazol-3-yl)-9H-pyrimido[4,5-b]indol-4-amine], the IC50 in the assay with MDA-MB-436 came to 51 nM; with MOLM-13 it was 28.4 nM; at recombinant BRD4 BD2, 82.3 nM; on recombinant BRD4 BD1 it was 16.7 nM.

As for `COc1cc2c(cc1-c1c(C)noc1C)[nH]c1nc(C(C)C)nc(Nc3nn(C)c4ccccc34)c12` [Cpd. No. 18, 7-(3,5-Dimethylisoxazol-4-yl)-2-isopropyl-6-methoxy-N-(1-methyl-1H-indazol-3-yl)-9H-pyrimido[4,5-b]indol-4-amine], the half-inhibitory concentration (IC50) in the assay on MDA-MB-436 turned out to be 141 nM; in the assay with MOLM-13, 86.2 nM; at recombinant BRD4 BD2, 1160 nM; on recombinant BRD4 BD1, 211 nM.

As to `COc1ccc2c(Nc3nc(C)nc4[nH]c5cc(-c6c(C)noc6C)c(OC)cc5c34)nn(C)c2c1` [Cpd. No. 19, 7-(3,5-Dimethylisoxazol-4-yl)-6-methoxy-N-(6-methoxy-1-methyl-1H-indazol-3-yl)-2-methyl-9H-pyrimido[4,5-b]indol-4-amine], the half-inhibitory concentration (IC50) in the assay with MDA-MB-436 is 323 nM; in the assay on MOLM-13, 109 nM; at recombinant BRD4 BD2, 613 nM; at recombinant BRD4 BD1, 200 nM.

For the compound `COc1cc2c(cc1-c1c(C)noc1C)[nH]c1nc(C)nc(Nc3cc(C(F)(F)F)nn3C)c12` [Cpd. No. 21, 7-(3,5-Dimethylisoxazol-4-yl)-6-methoxy-2-methyl-N-(1-methyl-3-(trifluoromethyl)-1H-pyrazol-5-yl)-9H-pyrimido[4,5-b]indol-4-amine], the IC50 in the assay with MDA-MB-436 was 52.7 nM; in the assay with MOLM-13 it was 21.9 nM; at recombinant BRD4 BD2, 34.6 nM; at recombinant BRD4 BD1 it was 13.3 nM.

For the compound `COc1cc2c(cc1-c1c(C)noc1C)[nH]c1nc(C)nc(Nc3cc(C(F)(F)F)nn3C(C)C)c12` [Cpd. No. 22, 7-(3,5-Dimethylisoxazol-4-yl)-N-(1-isopropyl-3-(trifluoromethyl)-1H-pyrazol-5-yl)-6-methoxy-2-methyl-9H-pyrimido[4,5-b]indol-4-amine], the IC50 in the assay on MDA-MB-436 stood at 84.8 nM; in the assay on MOLM-13, 77.5 nM; at recombinant BRD4 BD2, 40.6 nM; at recombinant BRD4 BD1 it was 49.1 nM.

`COc1cc2c(cc1-c1c(C)noc1C)[nH]c1nc(C)nc(Nc3ncnn3C(C)C)c12` [Cpd. No. 29, 7-(3,5-dimethylisoxazol-4-yl)-N-(1-isopropyl-1H-1,2,4-triazol-5-yl)-6-methoxy-2-methyl-9H-pyrimido[4,5-b]indol-4-amine]: the half-inhibitory concentration (IC50) is 1110 nM in the assay on MDA-MB-436, 82.1 nM with MOLM-13, over 1000 nM on recombinant BRD4 BD2 and over 1000 nM on recombinant BRD4 BD1.

The IC50 is the concentration that gives 50% inhibition.
